Data taken from patent US9504702B2, “Methods of inhibition of protein fucosylation in vivo using fucose analogs” (Seattle Genetics, Inc., priority 2010, dated 2016).
“Also recorded” adds a separate entry of the source.

Experiments:
[1] = system: LP-1 cells (1,6-fucosylation on the antibody); experiment: Fucosylation status of LP-1-generated IgG by reducing PLRP-MS; type: cell-based, human; conditions: 100 μM, 5 days, in words
Source text: To further define the results of the AOL dot blot, samples of the IgGs produced by cells treated with the following fucose analogs (that gave moderate to strong decreases in the dot blot AOL signal) were isolated and examined by reducing PLRP-MS to verify the fucosylation status using the MW of the heavy chain: alkynyl fucose peracetate; 5-vinylfucose tetraaceate; 5-methylketofucose tetraacetate; 6-bromofucose tetraacetate; 6-fluorofucose tetraacetate; 5-ethylfucose tetraacetate; 5-epoxyfucose tetraacetate; 6′6-difluorofucose tetraacetate; 6-keto-6-ethyl fucose tetraacetate; and 2-fluorofucose peracetate.
40 mL samples of LP-1 cells (250,000 cells/mL) were treated with 100 μM of a fucose analog for 5 days as described above, and the IgGs were purified as described using protein A resin. The yields were estimated by UV spectroscopy assuming an extinction coefficient of 1.4 AU/(mg/mL). Seven of the ten compounds yielded enough IgG to perform the analysis (use of SGD-2067, SGD-1964, and SGD-2020 yielded <10 μg of IgG, likely due to toxicity of the analogs to the cells). The remaining IgGs were reduced with 10 mM DTT at 37° C. for 15 min and were separated on PLRP followed by MS analysis using a QTOF mass spectrometer. The resulting heavy chain peaks were examined and compared to the IgG generated by untreated cells.
The mass spectrometry signals were evaluated by comparing the peak height of the heavy chain versus heavy chain minus fucose and heavy chain minus fucose plus the mass of the fucose analog (which would arise if there was incorporation of the analog into the antibody carbohydrate).

[2] = system: core antibody fucosylation (endogenous antibodies); experiment: Antibody fucosylation in vivo following oral administration, dose study (Example 3), dot blot; set-up: species or system Female BALC/c mice
Method: In this study, the effects of oral administration of the fucose analog 2-fluorofucose (SGD-2083) were further examined. Female BALC/c mice were offered […] 2-fluorofucose in their drinking water for 14 days. Mice were immunized with TiterMAX Classic and offered 1, 10 and 100 mM 2-fluorofucose in their drinking water for an additional 7 days. Mice were then terminally bled and serum obtained. Endogenous antibodies were purified by passing the serum over a protein A column
The collected antibodies were evaluated for fucosylation levels by dot blot as follows. Antibodies from untreated and treated animals (0.5 μg each), as well as standards of cAC10 with 0 to 100% fucose (only study 1), were blotted onto a nitrocellulose membrane. The proteins levels were visualized with Ponceau S. The blot was probed with biotinylated AOL lectin and developed with streptavidin HRP and ECL (as described above). Gel loading (visible) and fucose signals (bioluminescence) were measured with an Alpha Innotech camera and quantitated with the machine software.

[3] = system: antibody core fucosylation (antibodies that did not bind to KLH, recovered from protein A column); type: in vivo; conditions: 100 mM in drinking water for 14 days; non-KLH antibodies; dot blot; untreated 81%
Method: Female BALB/c mice were immunized with Keyhole Limpet Hemocyanin (KLH) 30-60 days prior to starting this study. For the first study, mice were dosed ip with 150 mg/kg of alkynyl fucose (SGD-1887), alkynyl fucose peracetate (SGD-1890), 2-fluorofucose (SGD-2083), or 2-fluorofucose triacetate (SGD-2084) daily for 7 days or were untreated. On day 2, mice were also boosted with KLH. On the day after the last ip dose, mice were terminally bled and serum obtained. For the second study, mice were given 100 mM of 2-fluorofucose (SGD-2083) in their drinking water or given untreated water for 7 days, boosted with KLH, and continued with 100 mM 2-fluorofucose containing drinking water or untreated water for 7 more days before being terminally bled. Serum was then obtained. No mice died in either study. For both studies, serum was passed over a commercial anti-KLH affinity column to obtain KLH-specific polyclonal antibodies. […]
Dot blots: 0.5 μg each of antibodies from untreated and treated animals, as well as standards of antibody cAC10 having known amounts of core fucosylation (0 to 100% fucose), were blotted onto a nitrocellulose membrane. […] Gel loading (visible) and fucose signals (bioluminescence) were measured with an Alpha Innotech camera and quantitated with the machine software.

[4] = system: Caki-1 renal cell carcinoma; experiment: Xenograft of pre-treated Caki-1 cells (Example 7, Study 2); type: in vivo, female nude mice; conditions: 20 mM in drinking water, not in first treatment period, observed in second
Method: To further evaluate the activity of these fucose analogs, further studies were performed in vivo using tumor cells that had been pre-treated by culturing in the presence of a fucose analog, or using untreated tumor cells. Tumor cells were implanted into 10 mice per group as follows. For the LS174T, PC-3, and Caki-1 cell lines, 5×10^5 cells in 25% Matrigel were implanted subcutaneously into female nude mice. For HL-60 and Ramos cell lines, 5×10^6 cells were implanted subcutaneously into female SCID mice. For mice implanted with untreated tumor cells, mice were provided regular drinking water. For mice implanted with tumor cells pre-treated with 2-fluorofucose (SGD-2083), the mice were provided drinking water supplemented with 20 mM 2-fluorofucose (SGD-2083). For mice implanted with tumor cells pre-treated with alkylnyl fucose (SGD-1887), the mice were provided with regular drinking water.
After 3 weeks of receiving 2-fluorofucose-containing drinking water, mice were returned to regular drinking water, except for mice with Caki-1 tumors. The latter mice were returned to regular drinking water for one week. After the week of receiving regular water, mice were randomized to two groups of 5 each to receive drinking water supplemented with 20 mM 2-fluorofucose or regular drinking water. Mice were sacrificed when tumors reached about 1000 mm^3.

| SMILES | PLRP/MS (inhibition or incorporation) [1] | antibody fucosylation levels ([2]; 1 mM in drinking water) | fucosylation levels of antibodies ([2]; 1, 10 and 100 mM in drinking water, 21 days) | antibody fucosylation levels ([2]; intermediate concentration (10 mM) in drinking water, compared with 100 mM) | fucosylation levels (average, treated animals) [3] [%] | tumor growth [4] |
| --- | --- | --- | --- | --- | --- | --- |
| C#CC(OC(C)=O)[C@@H](OC(C)=O)[C@@H](OC(C)=O)[C@@H](C=O)OC(C)=O (stereo partly drawn) [SGD-1890, 5-ethynylarabinose tetraacetate] | complete inhibition; also recorded: Full inhibitor |  |  |  |  |  |
| C[C@H](O)[C@@H](O)[C@@H](O)[C@H](F)C=O [SGD-2083, 2-fluoro-2-deoxy fucose] |  | highest in the untreated control and 1 mM 2-fluorofucose groups | dose-dependent decrease | nearly as depleted of fucose as the high concentration | 7 | tumor growth inhibition in vivo was seen |
